Test results reported in patent US20250092014A1, “COMPOUNDS AND METHODS OF ACTIVATING LIPOPROTEIN LIPASE” (Metrea Biosciences, Inc., priority 2021, published 2025).

Target: T1, LPL:sGPIHBP1 complex (Homo sapiens, UniProt P06858)
T1 sequence (P06858 28-475): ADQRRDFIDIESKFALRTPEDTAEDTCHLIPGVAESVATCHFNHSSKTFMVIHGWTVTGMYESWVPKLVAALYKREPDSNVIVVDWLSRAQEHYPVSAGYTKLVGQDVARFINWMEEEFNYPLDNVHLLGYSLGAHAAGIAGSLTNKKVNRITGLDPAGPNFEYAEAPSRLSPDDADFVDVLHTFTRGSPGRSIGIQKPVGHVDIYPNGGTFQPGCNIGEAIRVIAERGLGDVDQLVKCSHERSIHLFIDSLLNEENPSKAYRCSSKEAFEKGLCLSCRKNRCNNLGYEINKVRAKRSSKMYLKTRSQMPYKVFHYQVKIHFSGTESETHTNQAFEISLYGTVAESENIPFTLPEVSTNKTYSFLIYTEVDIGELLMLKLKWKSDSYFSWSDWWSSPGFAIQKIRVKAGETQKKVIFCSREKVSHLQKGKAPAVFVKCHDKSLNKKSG
T1 sequence (Q8IV16 21-151 partner limits assumed): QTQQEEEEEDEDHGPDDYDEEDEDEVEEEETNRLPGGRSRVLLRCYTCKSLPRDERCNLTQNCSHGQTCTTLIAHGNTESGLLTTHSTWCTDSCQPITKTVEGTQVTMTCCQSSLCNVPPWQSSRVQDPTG
Assay: RB assay (LPL:sGPIHBP1 pre-incubated with ANGPTL4, RB substrate)
Type: biochemical
Settings: read-out: RB qAC50
Summary of the method: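 LPL:sGPIHBP1 (5 nM diluted) was pre-incubated 60 min at RT with compound and ANGPTL4 (20 nM diluted), which cuts LPL activity by 80%. RB substrate (40 μM diluted) was then added and reacted 30 min at RT. The reaction was stopped with SDS, and fluorescence (ex 540/em 590 nm) was read 2 h later to detect LPL activation or ANGPTL4 inhibition.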

SMILES | EC50
O=C(O)Cc1cc(F)ccc1NC(=O)c1ccc(N2CCCCC2)c(NC(=O)c2nn(CCC(F)(F)F)c3ccccc23)c1 [Compound 121, 2-(5-fluoro-2-(4-(piperidin-1-yl)-3-(1-(3,3,3-trifluoropropyl)-1H-indazole-3-carboxamido)benzamido)phenyl)acetic acid] | 4.2 µM
C#CCn1nc(C(=O)Nc2cc(C(=O)Nc3ccc(F)cc3CC(=O)O)ccc2N2CCCCC2)c2ccccc21 [Compound 122, 2-(5-fluoro-2-(4-(piperidin-1-yl)-3-(1-(prop-2-yn-1-yl)-1H-indazole-3-carboxamido)benzamido)phenyl)acetic acid] | 3.8 µM
CC1CC(C)CN(c2ccc(C(=O)Nc3ccc(F)cc3CC(=O)O)cc2NC(=O)c2nn(CC(F)(F)F)c3ccccc23)C1 (centres unmarked) [Example 74] | > 7.1 µM
O=C(O)Cc1cc(F)ccc1NC(=O)c1ccc(N2CCS(=O)(=O)CC2)c(NC(=O)c2nn(CC(F)(F)F)c3ccccc23)c1 [Example 66] | > 25 µM
CC(C)(O)Cn1nc(C(=O)Nc2cc(C(=O)Nc3ccc(F)cc3CC(=O)O)ccc2N2CCCCC2)c2ccccc21 [Compound 106, 2-(5-fluoro-2-(3-(1-(2-hydroxy-2-methylpropyl)-1H-indazole-3-carboxamido)-4-(piperidin-1-yl)benzamido)phenyl)acetic acid] | 7.7 µM
O=C(O)Cc1cc(F)ccc1NC(=O)c1ccc(N2CCCCC2)c(NC(=O)c2nn(CC(F)(F)F)c3cnccc23)c1 [Compound 112, 2-(5-fluoro-2-(4-(piperidin-1-yl)-3-(1-(2,2,2-trifluoroethyl)-1H-pyrazolo[3,4-c]pyridine-3-carboxamido)benzamido)phenyl)acetic acid] | 6.4 µM
Cc1ccc2c(C(=O)Nc3cc(C(=O)Nc4ccc(F)cc4CC(=O)O)ccc3N3CCCCC3)nn(CC(F)(F)F)c2c1 [Compound 143, 2-(5-fluoro-2-(3-(6-methyl-1-(2,2,2-trifluoroethyl)-1H-indazole-3-carboxamido)-4-(piperidin-1-yl)benzamido)phenyl)acetic acid] | 5 µM
O=C(O)Cc1cc(F)ccc1NC(=O)c1ccc(N2CCCCC2)c(NC(=O)c2nn(C3CC3)c3ccccc23)c1 [Compound 97, 2-(2-(3-(1-cyclopropyl-1H-indazole-3-carboxamido)-4-(piperidin-1-yl)benzamido)-5-fluorophenyl)acetic acid] | 13 µM
O=C(O)Cc1ccccc1C(=O)Nc1ccc(N2CCCCC2)c(C(=O)Nc2nn(CC(F)(F)F)c3ccccc23)c1 [Compound 51, 2-(2-((4-(piperidin-1-yl)-3-((1-(2,2,2-trifluoroethyl)-1H-indazol-3-yl)carbamoyl)phenyl)carbamoyl)phenyl)acetic acid] | 4.1 µM

Target: T2, LPL (native bovine milk protein) inactivated by ANGPTL4 (Bos taurus, UniProt P11151)
T2 construct: from tissue; host or cells: bovine milk (LPL); E. coli (GST-ANGPTL4)
T2 sequence (P11151 29-478): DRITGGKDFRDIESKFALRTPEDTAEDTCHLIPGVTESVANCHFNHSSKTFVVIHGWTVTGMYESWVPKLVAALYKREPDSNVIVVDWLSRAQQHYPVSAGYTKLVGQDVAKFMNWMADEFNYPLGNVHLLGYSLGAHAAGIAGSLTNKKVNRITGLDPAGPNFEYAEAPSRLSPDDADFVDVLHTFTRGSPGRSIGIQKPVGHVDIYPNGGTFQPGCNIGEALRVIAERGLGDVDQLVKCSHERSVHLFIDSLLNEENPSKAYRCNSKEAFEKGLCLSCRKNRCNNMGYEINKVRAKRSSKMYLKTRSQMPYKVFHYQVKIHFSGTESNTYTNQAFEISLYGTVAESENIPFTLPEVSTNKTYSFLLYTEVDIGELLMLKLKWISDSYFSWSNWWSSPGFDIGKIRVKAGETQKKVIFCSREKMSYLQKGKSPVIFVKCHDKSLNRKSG
Assay: LPL ANGPTL4 protection assay (LPL fluorescence assay, resorufin butyrate substrate)
Type: biochemical
Settings: LPL activation activity, LPL 2.5 nM, ANGPTL4 20 nM
Procedure: LPL is inactivated by angiopoietin-like 4 (ANGPTL4). Compounds of the present disclosure were for activity using the following protection assay. Briefly, the assay was performed in a black opaque 96-well microtiter plate with final volume of 100 μL using a buffer consisting of 50 mM HEPES (pH 7.2), 150 mM NaCl and 0.03% Triton X-100. Compounds were prepared as 10 mM stocks in DMSO, with subsequent serial dilutions performed in DMSO. Two microliters of test compounds were added to the microtiter plate, followed by 49-PL of LPL (native bovine milk protein affinity purified using heparin-affinity chromatography) in assay buffer. The plate contents were mixed using an orbital shaker and allowed to incubate for 5 minutes at room temperature. The enzymatic assay was initiated by the addition of a mixture of 49 μL of 50 μM resorufin butyrate (Santa Cruz #sc-208302; prepared from a 10 mM DMSO stock) and ANGPTL4 (N-terminal GST construct consisting of residues 26-164 expressed in E. coli) in assay buffer. The final concentrations of LPL and ANGPTL4 were 2.5 nM and 20 nM, respectively. The assay was allowed to proceed at 30° C. for 25 minutes with kinetic monitoring (Ex560/Em585) followed by an endpoint reading which was used for analysis.
Data was analyzed in Graphpad Prism (version 6.0, GraphPad Software, Inc., San Diego, CA) using a variable slope four parameter fit of the equation:
Y=Bottom+(Top-Bottom)/(1+10^((Log EC50−X)*HillSlope)),
where X is the concentration of test compound, Y corresponds to the amount of product expressed in relative fluorescence units, and Top and Bottom refer to the plateaus of the curve. Percent activation (protection) of test compound was calculated relative to zero effect wells (ZEW; LPL, ANGPTL4 and substrate) and maximum effect wells (MEW; LPL plus substrate): ((test well−ZEW)/(MEW−ZEW))*100.

SMILES | EC50
Cn1nc(C(=O)Nc2cc(C(=O)Nc3cc(-c4nnn[nH]4)ccc3F)ccc2N2CCCCC2)c2ccccc21 [Compound 166, N-(5-((2-fluoro-5-(1H-tetrazol-5-yl)phenyl)carbamoyl)-2-(piperidin-1-yl)phenyl)-1-methyl-1H-indazole-3-carboxamide] | 8.1 µM
CCn1nc(C(=O)Nc2cc(C(=O)Nc3ccc(F)cc3CC(=O)O)ccc2N2CCCCC2)c2ccccc21 [Compound 160, 2-(2-(3-(1-ethyl-1H-indazole-3-carboxamido)-4-(piperidin-1-yl)benzamido)-5-fluorophenyl)acetic acid] | 1.66 µM
Cn1nc(C(=O)Nc2cc(C(=O)Nc3ccccc3CC(=O)O)ccc2N2CCCCC2)cc1-c1ccccc1 [Compound 163, 2-(2-(3-(1-methyl-5-phenyl-1H-pyrazole-3-carboxamido)-4-(piperidin-1-yl)benzamido)phenyl)acetic acid] | 4.13 µM
O=C(Nc1ccc(-c2nnn[nH]2)cc1)c1ccc(N2CCCCC2)c(NC(=O)c2nn(CC(F)(F)F)c3ccccc23)c1 [Compound 164, N-(5-((4-(1H-tetrazol-5-yl)phenyl)carbamoyl)-2-(piperidin-1-yl)phenyl)-1-(2,2,2-trifluoroethyl)-1H-indazole-3-carboxamide] | 5.16 µM
Cc1ccc(NC(=O)c2cc(NCc3ccc(-c4nsc(=O)[nH]4)cc3)ccc2N2CCCCC2)cc1 [Compound 168, N-(4-methylphenyl)-5-({[4-(5-oxo-4,5-dihydro-1,2,4-thiadiazol-3-yl)phenyl]methyl}amino)-2-(piperidin-1-yl)benzamide] | 14.9 µM
CC(C)n1nc(C(=O)Nc2cc(C(=O)Nc3ccc(F)cc3CC(=O)O)ccc2N2CCCCC2)c2ccccc21 [Compound 162, 2-(5-fluoro-2-(3-(1-isopropyl-1H-indazole-3-carboxamido)-4-(piperidin-1-yl)benzamido)phenyl)acetic acid] | 3.25 µM
O=C(O)Cc1cc(F)ccc1NC(=O)c1ccc(N2CCCCC2)c(NC(=O)c2nn(Cc3ccccc3)c3ccccc23)c1 [Compound 159, 2-(2-(3-(1-benzyl-1H-indazole-3-carboxamido)-4-(piperidin-1-yl)benzamido)-5-fluorophenyl)acetic acid] | 0.85 µM
Cc1ccc(NC(=O)c2cc(-n3cc4ccc(-c5nnn[nH]5)cc4n3)ccc2N2CCCCC2)cc1 [Compound 167, 5-(6-(1H-tetrazol-5-yl)-2H-indazol-2-yl)-2-(piperidin-1-yl)-N-(p-tolyl)benzamide] | 9.41 µM
Cn1nc(C(=O)Nc2cc(C(=O)Nc3ccc(-c4nnn[nH]4)cc3)ccc2N2CCCCC2)c2ccc(F)cc21 [Compound 165, N-(5-((4-(1H-tetrazol-5-yl)phenyl)carbamoyl)-2-(piperidin-1-yl)phenyl)-6-fluoro-1-methyl-1H-indazole-3-carboxamide] | 7.99 µM
O=C(O)Cc1ccccc1NC(=O)c1ccc(N2CCCCC2)c(NC(=O)c2cc3n(n2)CCCC3)c1 [Compound 161, 2-(2-(4-(piperidin-1-yl)-3-(4,5,6,7-tetrahydropyrazolo[1,5-a]pyridine-2-carboxamido)benzamido)phenyl)acetic acid] | 3.2 µM
Cc1ccc(NC(=O)c2cc(NCc3cc(-c4nnn[nH]4)ccc3F)ccc2N2CCCCC2)cc1 [Compound 169, 5-((2-fluoro-5-(1H-tetrazol-5-yl)benzyl)amino)-2-(piperidin-1-yl)-N-(p-tolyl)benzamide] | 6.38 µM
